{"source": "patent US20190060384A1", "about": "“COMPOSITION FOR TREATMENT OR PREVENTION OF LUNG CANCER AND A METHOD THEREFORE” (priority 2017, published 2019)", "key": {"[1]": {"settings": "mouse, in vivo, po", "source_text": "(§2) Day 28; mortality, clinical symptoms, change in body weight, autopsy findings, hematological (14 items; Table 18) and hematochemical (20 items; Table 19) changes, histopathological changes (23 organs: brain cerebrum, cerebellum and bulbar, heart, thymus, lung, testis, epididymis, kidney, adrenal gland, spleen, liver, pancreas, alimentary tract esophagus, fundic portion, pyloric portion, duodenum, jejunum, ileum, cecum, colon and rectum, submandibular lymph node), and changes in content of liver lipid peroxidation and antioxidant defense system glutathione (GSH), and catalase (CAT) and superoxide dismutase (SOD) activities."}, "[2]": {"test_system": "NCI-H520 non-small cell lung cancer cell xenograft", "assay": "NCI-H520 xenograft nude mice: tumor volume and tumor weight", "assay_type": "in vivo, athymic nude mice", "text": "(§1) (1) Anticancer effects: Changes in tumor volume, tumor weight, tumor cell volume in a formed mass, and apoptotic cell percentages, and changes in immunoreactivities of caspase-3, PARP, NT, 4-HNE, CD31, Ki-67, COX-2, iNOS, and TNF-α in the formed mass"}, "[3]": {"settings": "male, ICR, mouse, in vivo, po, 28 days", "source_text": "as §2"}, "[4]": {"settings": "male, ICR, mouse, in vivo, po, 28 days", "remark": "listed apart in the source", "source_text": "as §2"}, "[5]": {"assay": "Pharmacokinetics of gefitinib after repeated oral Lonicera flos", "assay_type": "in vivo, Sprague-Dawley rats", "settings": "for concentration at 0.5 h: 0.50 h; for AUC(0-t) / Cmax / Tmax / half-life: po, average"}, "NCI-H520 tumor mass": {"test_system": "NCI-H520 tumor mass", "assay": "NCI-H520 xenograft nude mice: tumor mass histopathology and immunohistochemistry", "assay_type": "in vivo, athymic nude mice", "settings": "tumor mass, oral once daily 35 days", "text": "as §1"}, "[6]": {"settings": "NCI-H520 xenograft nude mice, oral once daily 35 days"}, "[7]": {"settings": "male, Sprague-Dawley, rat, plasma, oral, 10 mg/kg, gefitinib 10 mg/kg oral, control (saline) rats"}, "[8]": {"settings": "male, Sprague-Dawley, rat, plasma, oral, gefitinib 10 mg/kg oral after Lonicera flos 300 mg/kg oral 15 days"}, "[9]": {"settings": "male, Sprague-Dawley, rat, plasma, 10 mg/kg, gefitinib 10 mg/kg oral, Control"}, "[10]": {"settings": "male, Sprague-Dawley, rat, plasma, 10 mg/kg, gefitinib 10 mg/kg oral, Lonicera japonica group (15 days pre-treatment)"}}}
{"compound": "COc1cc2ncnc(Nc3ccc(F)c(Cl)c3)c2cc1OCCCN1CCOCC1", "note": "[Gefitinib, gefitinib]", "values": [{"measurement": "ALB", "setting": "[1]", "value": "1.39 ± 0.25", "unit": "a g/dL"}, {"measurement": "ALP", "setting": "[1]", "value": "107.00 ± 22.41", "unit": "IU/L"}, {"measurement": "ALT", "setting": "[1]", "value": "215.00 ± 33.87", "unit": "d IU/L"}, {"measurement": "AST", "setting": "[1]", "value": "29.014 ± 23.57", "unit": "d IU/L"}, {"measurement": "BIL", "setting": "[1]", "value": "0.14 ± 0.05", "unit": "mg/dL"}, {"measurement": "BUN", "setting": "[1]", "value": "18.19 ± 0.89", "unit": "mg/dL"}, {"measurement": "CRE", "setting": "[1]", "value": "0.39 ± 0.18", "unit": "mg/dL"}, {"measurement": "GLU", "setting": "[1]", "value": "92.43 ± 7.93", "unit": "mg/dL"}, {"measurement": "Globulin", "setting": "[1]", "value": "3.73 ± 0.39", "unit": "a g/dL"}, {"measurement": "K", "setting": "[1]", "value": "9.97 ± 0.25", "unit": "mmol/L"}, {"measurement": "PRO", "setting": "[1]", "value": "5.11 ± 0.19", "unit": "g/dL"}, {"measurement": "TG", "setting": "[1]", "value": "195.71 ± 47.00", "unit": "mg/dL"}, {"measurement": "Tumor volume First administration [A]", "setting": "[2]; NCI-H520 xenograft nude mice, baseline", "value": "459.88 ± 129.50", "unit": "mm^3"}, {"measurement": "Tumor mass absolute weight", "setting": "[2]; [6]", "value": "1.321 ± 0.191", "unit": "g"}, {"measurement": "Tumor volume Sacrifice [B]", "setting": "[2]; [6]", "value": "2486.04 ± 480.24", "unit": "a mm^3"}, {"measurement": "change of the amount of change in tumor volume", "setting": "[2]; vs tumor xenograft group, 5 weeks", "value": "−68.18", "unit": "%"}, {"measurement": "change in tumor absolute weight", "setting": "[2]; vs tumor xenograft group, 35 days", "value": "−47.72", "unit": "%"}, {"measurement": "Autopsy: Liver Discolorization", "setting": "[3]", "value": "7/7"}, {"measurement": "Autopsy: Liver Discolorization 1+", "setting": "[3]", "value": "0/7"}, {"measurement": "Autopsy: Liver Discolorization 2+", "setting": "[3]", "value": "1/7"}, {"measurement": "Autopsy: Liver Discolorization 3+", "setting": "[3]", "value": "6/7"}, {"measurement": "Autopsy: Liver Normal", "setting": "[3]", "value": "0/7"}, {"measurement": "Autopsy: Lung Congestion", "setting": "[3]", "value": "2/7"}, {"measurement": "Autopsy: Lung Congestion 1+", "setting": "[3]", "value": "2/7"}, {"measurement": "Autopsy: Lung Normal", "setting": "[3]", "value": "5/7"}, {"measurement": "Autopsy: Lymph nodes Hypertrophy", "setting": "[3]", "value": "7/7"}, {"measurement": "Autopsy: Lymph nodes Hypertrophy 1+", "setting": "[3]", "value": "0/7"}, {"measurement": "Autopsy: Lymph nodes Hypertrophy 2+", "setting": "[3]", "value": "4/7"}, {"measurement": "Autopsy: Lymph nodes Hypertrophy 3+", "setting": "[3]", "value": "3/7"}, {"measurement": "Autopsy: Lymph nodes Normal", "setting": "[3]", "value": "0/7"}, {"measurement": "Autopsy: Others Normal", "setting": "[3]", "value": "7/7"}, {"measurement": "Autopsy: Spleen Hypertrophy", "setting": "[3]", "value": "7/7"}, {"measurement": "Autopsy: Spleen Hypertrophy 1+", "setting": "[3]", "value": "0/7"}, {"measurement": "Autopsy: Spleen Hypertrophy 2+", "setting": "[3]", "value": "4/7"}, {"measurement": "Autopsy: Spleen Hypertrophy 3+", "setting": "[3]", "value": "3/7"}, {"measurement": "Autopsy: Spleen Normal", "setting": "[3]", "value": "0/7"}, {"measurement": "Histopathology: Fundus Normal", "setting": "[4]", "value": "5/7"}, {"measurement": "Histopathology: Fundus fCV 1+ (local cysts)", "setting": "[4]", "value": "2/7"}, {"measurement": "Histopathology: Liver IF 1+ (inflammatory cell infiltration)", "setting": "[4]", "value": "0/7"}, {"measurement": "Histopathology: Liver IF-FN 1+ (infiltration with local necrosis)", "setting": "[4]", "value": "0/7"}, {"measurement": "Histopathology: Liver IF-FN 2+", "setting": "[4]", "value": "1/7"}, {"measurement": "Histopathology: Liver IF-FN 3+", "setting": "[4]", "value": "6/7"}, {"measurement": "Histopathology: Liver Normal", "setting": "[4]", "value": "0/7"}, {"measurement": "Histopathology: Lung CG 1+ (hyperemia)", "setting": "[4]", "value": "1/7"}, {"measurement": "Histopathology: Lung Normal", "setting": "[4]", "value": "6/7"}, {"measurement": "Histopathology: Lymph nodes Normal", "setting": "[4]", "value": "0/7"}, {"measurement": "Histopathology: Lymph nodes dHP 1+ (diffused lymphocyte hyperplasia)", "setting": "[4]", "value": "0/7"}, {"measurement": "Histopathology: Lymph nodes dHP 2+", "setting": "[4]", "value": "4/7"}, {"measurement": "Histopathology: Lymph nodes dHP 3+", "setting": "[4]", "value": "3/7"}, {"measurement": "Histopathology: Others Normal", "setting": "[4]", "value": "7/7"}, {"measurement": "Histopathology: Spleen Normal", "setting": "[4]", "value": "0/7"}, {"measurement": "Histopathology: Spleen rHP 1+ (red pulp lymphocyte hyperplasia)", "setting": "[4]", "value": "0/7"}, {"measurement": "Histopathology: Spleen rHP 2+", "setting": "[4]", "value": "3/7"}, {"measurement": "Histopathology: Spleen rHP 3+", "setting": "[4]", "value": "4/7"}, {"measurement": "concentration at 0.5 h", "setting": "[5]; [7]", "value": 703, "unit": "ng/mL"}, {"measurement": "concentration at 1 h", "setting": "[5]; [7]", "value": 805, "unit": "ng/mL"}, {"measurement": "concentration at 3 h", "setting": "[5]; [7]", "value": 762, "unit": "ng/mL"}, {"measurement": "concentration at 7 h", "setting": "[5]; [7]", "value": 824, "unit": "ng/mL"}, {"measurement": "concentration at 10 h", "setting": "[5]; [7]", "value": 439, "unit": "ng/mL"}, {"measurement": "concentration at 24 h", "setting": "[5]; [7]", "value": 70, "unit": "ng/mL"}, {"measurement": "concentration at 0.5 h", "setting": "[5]; [8]", "value": 571, "unit": "ng/mL"}, {"measurement": "concentration at 1 h", "setting": "[5]; [8]", "value": 645, "unit": "ng/mL"}, {"measurement": "concentration at 3 h", "setting": "[5]; [8]", "value": 531, "unit": "ng/mL"}, {"measurement": "concentration at 7 h", "setting": "[5]; [8]", "value": 579, "unit": "ng/mL"}, {"measurement": "concentration at 10 h", "setting": "[5]; [8]", "value": 430, "unit": "ng/mL"}, {"measurement": "concentration at 24 h", "setting": "[5]; [8]", "value": 53, "unit": "ng/mL"}, {"measurement": "concentration at […]", "setting": "[5]; male, Sprague-Dawley, rat, plasma, oral, gefitinib 10 mg/kg oral after Lonicera flos 300 mg/kg oral 15 days, […]", "value": 274, "unit": "ng/mL"}, {"measurement": "AUC(0-t)", "setting": "[5]; [9]", "value": 10800, "unit": "ng·h/mL"}, {"measurement": "Cmax", "setting": "[5]; [9]", "value": 921, "unit": "ng/mL"}, {"measurement": "Tmax", "setting": "[5]; [9]", "value": 3.55, "unit": "h"}, {"measurement": "half-life", "setting": "[5]; [9]", "value": 303, "unit": "min"}, {"measurement": "AUC(0-t)", "setting": "[5]; [10]", "value": 8740, "unit": "ng·h/mL"}, {"measurement": "Cmax", "setting": "[5]; [10]", "value": 736, "unit": "ng/mL"}, {"measurement": "Tmax", "setting": "[5]; [10]", "value": 2.89, "unit": "h"}, {"measurement": "half-life", "setting": "[5]; [10]", "value": 290, "unit": "min"}, {"measurement": "time of maximum plasma concentration after administration", "setting": "[5]; orally administered, rats", "value": "about 4 hours"}, {"measurement": "Immunoreactive cell percentages: 4-hydroxynonenal", "setting": "NCI-H520 tumor mass", "value": "29.12 ± 8.55", "unit": "a %/tumor cells"}, {"measurement": "Immunoreactive cell percentages: CD31", "setting": "NCI-H520 tumor mass", "value": "29.90 ± 5.37", "unit": "a %/tumor cells"}, {"measurement": "Immunoreactive cell percentages: Cleaved caspase-3", "setting": "NCI-H520 tumor mass", "value": "25.77 ± 5.73", "unit": "d %/tumor cells"}]}
